Data on 22 compounds can be found in patent US12421191B2, “3-hydroxyoxindole derivatives as CRHR2 antagonist” (RaQualia Pharma Inc., priority 2020, dated 2025).

For the test, the target named is T1, human CRHR2-alpha (Homo sapiens, UniProt Q13324).
T1 construct: host or cells: CHO-K1
T1 sequence (Q13324 1-411): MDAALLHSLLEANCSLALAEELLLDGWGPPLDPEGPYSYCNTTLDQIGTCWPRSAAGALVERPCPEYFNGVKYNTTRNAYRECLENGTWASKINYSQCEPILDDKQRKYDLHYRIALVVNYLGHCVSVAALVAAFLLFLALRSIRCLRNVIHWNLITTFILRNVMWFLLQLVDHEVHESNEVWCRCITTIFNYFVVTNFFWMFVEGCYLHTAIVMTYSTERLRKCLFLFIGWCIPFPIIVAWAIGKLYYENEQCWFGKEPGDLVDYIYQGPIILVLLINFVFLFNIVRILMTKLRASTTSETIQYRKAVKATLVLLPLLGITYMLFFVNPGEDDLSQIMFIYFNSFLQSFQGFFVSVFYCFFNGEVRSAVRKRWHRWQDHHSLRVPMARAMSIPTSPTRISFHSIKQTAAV
Description: cAMP functional assay for human CRHR2 (LANCE Ultra TR-FRET). Type of test: cell-based. Conditions: inhibition of cAMP production in CHO-K1 cells stably expressing human CRHR2-alpha, EC90 of human urocortin2 as agonist; read-out: IC50 against CRHR2. On the procedure: cAMP functional assay for human CRHR2 The ability of the compounds of this invention to inhibit either CRHR2 is assessed by 3′,5′-cyclic adenosine monophosphate (cAMP) production in cells using the LANCE Ultra cAMP assay kit (ParkinElmer), which are designed based on the homogeneous time-resolved fluorescence resonance energy transfer (TR-FRET) immunoassay.
CHO-K1 (Chinese hamster ovary) cells stably expressing human CRHR2-alpha (DiscoveRX, Cat. 95-0048C2) are grown in HAM's F12 media supplemented with 10% fetal bovine serum (FBS), 100 units/mL penicillin G, 100 microg/mL hygromycin and 0.5 microg/mL geneticin at 37° C. in 5% CO2 humidified incubator to 80% confluence. After 7 hours starvation treatment in culture media containing 0.1% FBS, the cells are washed with Hanks balanced salt solution (HBSS) and cryopreserved.
For cAMP assay, frozen cells are thawed and washed with HBSS, followed by resuspending cells in assay buffer (HBSS containing 0.1% bovine serum albumin, 0.5 mM isobutylmethylxanthine and 5 mM Hepes, pH 7.4) at the appropriate concentration for the assay. The cell suspensions are plated on 384-well microplates (Greiner Bio-One) at a density of 4,000 cells per well. After preincubating the cells with various concentrations of the compounds for 30 min at 25° C., an assay buffer containing EC90 concentration of agonist is added and the cells are incubated for 30 min at 25° C. Human urocortin2 (Peptide Institute) is used as agonists for CRHR2. For the termination of assay, europium-labeled cAMP tracer and ULight (registered trademark) dye labeled cAMP antibodies, both prepared with Lance-Ultra cAMP detection reagent (PerkinElmer) are added in the plate and incubate for 60 min at 25° C. After incubation, TR-FRET signal is detected by EnVision plate reader (PerkinElmer). The IC50 values for compounds are calculated from dose-response curves by fitting the percent inhibition using XLfit (ID Business Solutions).
On the technique in general: Time-resolved FRET reads energy transfer from a long-lived donor to a nearby acceptor.
Broadly, the IC50 is the concentration at which inhibition is half-maximal. On to `O=C(N[C@H]1CC[C@H](CN2C(=O)C(O)(c3ccccc3F)c3cccc(F)c32)CC1)c1cc(Cl)cnc1C(F)F` (mixture of isomers) [Example 82, 5-chloro-2-(difluoromethyl)-N-((1r,4r)-4-((7-fluoro-3-(2-fluorophenyl)-3-hydroxy-2-oxoindolin-1-yl)methyl)cyclohexyl) nicotinamide], for which the 50% inhibitory concentration (IC50) is less than 200 nM.

Regarding `COc1ccc(C2(O)C(=O)N(C[C@H]3CC[C@H](NC(=O)c4cc(Cl)cnc4C(F)F)CC3)c3ccccc32)cc1` (stereo partly shown) [Example 2, 5-chloro-2-(difluoromethyl)-N-((1r,4r)-4-((3-hydroxy-3-(4-methoxyphenyl)-2-oxoindolin-1-yl)methyl)cyclohexyl) nicotinamide], the 50% inhibitory concentration (IC50) is less than 200 nM.

Take `O=C(N[C@H]1CC[C@H](CN2C(=O)C(O)(c3ccccc3)c3ccccc32)CC1)c1cc(Cl)cnc1C(F)F` (stereo partly shown) [Example 3, 5-chloro-2-(difluoromethyl)-N-((1r,4r)-4-((3-hydroxy-2-oxo-3-phenylindolin-1-yl)methyl)cyclohexyl) nicotinamide]: the IC50 was less than 200 nM.

With `O=C(N[C@H]1CC[C@H](CN2C(=O)C(O)(c3ccncc3F)c3ccccc32)CC1)c1cc(Cl)cnc1C(F)F` (stereo partly shown) [Example 10, 5-chloro-2-(difluoromethyl)-N-((1r,4r)-4-((3-(3-fluoropyridin-4-yl)-3-hydroxy-2-oxoindolin-1-yl)methyl)cyclohexyl) nicotinamide], the IC50 was less than 200 nM.

Consider `O=C(N[C@H]1CC[C@H](CN2C(=O)C(O)(c3ccc(Cl)cn3)c3ccccc32)CC1)c1cc(Cl)cnc1C(F)F` (stereo partly shown) [Example 13, 5-chloro-N-((1r,4r)-4-((3-(5-chloropyridin-2-yl)-3-hydroxy-2-oxoindolin-1-yl)methyl)cyclohexyl)-2-(difluoromethyl)nicotinamide], for which the IC50 was less than 200 nM.

As for `O=C(N[C@H]1CC[C@H](CN2C(=O)C(O)(c3ccc(F)cc3)c3ccccc32)CC1)c1cc(Cl)cnc1C(F)F` (stereo partly shown) [Example 17, 5-chloro-2-(difluoromethyl)-N-((1r,4r)-4-((3-(4-fluorophenyl)-3-hydroxy-2-oxoindolin-1-yl)methyl)cyclohexyl) nicotinamide], the half-maximal inhibitory concentration (IC50) is less than 200 nM.

Take `O=C(N[C@H]1CC[C@H](CN2C(=O)C(O)(c3ccc(F)cn3)c3ccccc32)CC1)c1cc(Cl)cnc1C(F)F` (stereo partly shown) [Example 18, 5-chloro-2-(difluoromethyl)-N-((1r,4r)-4-((3-(5-fluoropyridin-2-yl)-3-hydroxy-2-oxoindolin-1-yl)methyl)cyclohexyl) nicotinamide]: the IC50 is less than 200 nM.

Consider `O=C(N[C@H]1CC[C@H](CN2C(=O)C(O)(c3cccc(F)c3)c3ccccc32)CC1)c1cc(Cl)cnc1C(F)F` (stereo partly shown) [Example 20, 5-chloro-2-(difluoromethyl)-N-((1r,4r)-4-((3-(3-fluorophenyl)-3-hydroxy-2-oxoindolin-1-yl)methyl)cyclohexyl) nicotinamide], for which the IC50 was less than 200 nM.

As for `COc1cc(C2(O)C(=O)N(C[C@H]3CC[C@H](NC(=O)c4cc(Cl)cnc4C(F)F)CC3)c3ccccc32)c(F)cn1` (stereo partly shown) [Example 27, 5-chloro-2-(difluoromethyl)-N-((1r,4r)-4-((3-(5-fluoro-2-methoxypyridin-4-yl)-3-hydroxy-2-oxoindolin-1-yl)methyl)cyclohexyl) nicotinamide], the IC50 was less than 200 nM.

In the case of `O=C(N[C@H]1CC[C@H](CN2C(=O)C(O)(c3ccccc3)c3ccc(Cl)cc32)CC1)c1cc(Cl)cnc1C(F)F` (stereo partly shown) [Example 30, 5-chloro-N-((1r,4r)-4-((6-chloro-3-hydroxy-2-oxo-3-phenylindolin-1-yl)methyl)cyclohexyl)-2-(difluoromethyl)nicotinamide], the half-inhibitory concentration (IC50) is less than 200 nM.

As for `O=C(N[C@H]1CC[C@H](CN2C(=O)C(O)(c3ccccc3F)c3ccccc32)CC1)c1cc(Cl)cnc1C(F)F` (stereo partly shown) [Example 33, 5-chloro-2-(difluoromethyl)-N-((1r,4r)-4-((3-(2-fluorophenyl)-3-hydroxy-2-oxoindolin-1-yl)methyl)cyclohexyl) nicotinamide], the concentration for half-maximal inhibition (IC50) is less than 200 nM.

`O=C(N[C@H]1CC[C@H](CN2C(=O)C(O)(c3cccc(F)c3F)c3ccccc32)CC1)c1cc(Cl)cnc1C(F)F` (stereo partly shown) [Example 40, 5-chloro-2-(difluoromethyl)-N-((1r,4r)-4-((3-(2,3-difluorophenyl)-3-hydroxy-2-oxoindolin-1-yl)methyl)cyclohexyl) nicotinamide]: the IC50 is less than 200 nM.

Take `COc1cccc(C2(O)C(=O)N(C[C@H]3CC[C@H](NC(=O)c4cc(Cl)cnc4C(F)F)CC3)c3ccccc32)c1` (stereo partly shown) [Example 47, 5-chloro-2-(difluoromethyl)-N-((1r,4r)-4-((3-hydroxy-3-(3-methoxyphenyl)-2-oxoindolin-1-yl)methyl)cyclohexyl) nicotinamide]: the 50% inhibitory concentration (IC50) is less than 200 nM.

In the case of `O=C(N[C@H]1CC[C@H](CN2C(=O)C(O)(c3cccc(Cl)c3)c3ccccc32)CC1)c1cc(Cl)cnc1C(F)F` (stereo partly shown) [Example 48, 5-chloro-N-((1r,4r)-4-((3-(3-chlorophenyl)-3-hydroxy-2-oxoindolin-1-yl)methyl)cyclohexyl)-2-(difluoromethyl)nicotinamide], the IC50 was less than 200 nM.

Regarding `Cc1cccc(C2(O)C(=O)N(C[C@H]3CC[C@H](NC(=O)c4cc(Cl)cnc4C(F)F)CC3)c3ccccc32)c1` (stereo partly shown) [Example 49, 5-chloro-2-(difluoromethyl)-N-((1r,4r)-4-((3-hydroxy-2-oxo-3-(m-tolyl)indolin-1-yl)methyl)cyclohexyl) nicotinamide], the IC50 is less than 200 nM.

Take `O=C(N[C@H]1CC[C@H](CN2C(=O)C(O)(c3ccc(F)cc3F)c3ccccc32)CC1)c1cc(Cl)cnc1C(F)F` (stereo partly shown) [Example 53, 5-chloro-2-(difluoromethyl)-N-((1r,4r)-4-((3-(2,4-difluorophenyl)-3-hydroxy-2-oxoindolin-1-yl)methyl)cyclohexyl) nicotinamide]: the 50% inhibitory concentration (IC50) is less than 200 nM.

For the compound `COc1ccc(C2(O)C(=O)N(C[C@H]3CC[C@H](NC(=O)c4cc(Cl)cnc4C(F)F)CC3)c3ccccc32)c(F)c1` (stereo partly shown) [Example 54, 5-chloro-2-(difluoromethyl)-N-((1r,4r)-4-((3-(2-fluoro-4-methoxyphenyl)-3-hydroxy-2-oxoindolin-1-yl)methyl)cyclohexyl) nicotinamide], the IC50 was less than 200 nM.

With `Cc1ccc(C2(O)C(=O)N(C[C@H]3CC[C@H](NC(=O)c4cc(Cl)cnc4C(F)F)CC3)c3ccccc32)cc1` (stereo partly shown) [Example 56, 5-chloro-2-(difluoromethyl)-N-((1r,4r)-4-((3-hydroxy-2-oxo-3-(p-tolyl)indolin-1-yl)methyl)cyclohexyl) nicotinamide], the IC50 was less than 200 nM.

Take `O=C(N[C@H]1CC[C@H](CN2C(=O)C(O)(c3cc(F)ccc3F)c3ccccc32)CC1)c1cc(Cl)cnc1C(F)F` (stereo partly shown) [Example 58, 5-chloro-2-(difluoromethyl)-N-((1r,4r)-4-((3-(2,5-difluorophenyl)-3-hydroxy-2-oxoindolin-1-yl)methyl)cyclohexyl) nicotinamide]: the IC50 was less than 200 nM.

As to `N#Cc1ccc(F)c(C2(O)C(=O)N(C[C@H]3CC[C@H](NC(=O)c4cc(Cl)cnc4C(F)F)CC3)c3ccccc32)c1` (stereo partly shown) [Example 59, 5-chloro-N-((1r,4r)-4-((3-(5-cyano-2-fluorophenyl)-3-hydroxy-2-oxoindolin-1-yl)methyl)cyclohexyl)-2-(difluoromethyl)nicotinamide], the IC50 was less than 200 nM.

With `Cc1cccc(C2(O)C(=O)N(C[C@H]3CC[C@H](NC(=O)c4cc(Cl)cnc4C(F)F)CC3)c3ccccc32)c1F` (stereo partly shown) [Example 63, 5-chloro-2-(difluoromethyl)-N-((1r,4r)-4-((3-(2-fluoro-3-methylphenyl)-3-hydroxy-2-oxoindolin-1-yl)methyl)cyclohexyl) nicotinamide], the 50% inhibitory concentration (IC50) is less than 200 nM.

In the case of `COc1cccc(C2(O)C(=O)N(C[C@H]3CC[C@H](NC(=O)c4cc(Cl)cnc4C(F)F)CC3)c3ccccc32)c1F` (stereo partly shown) [Example 66, 5-chloro-2-(difluoromethyl)-N-((1r,4r)-4-((3-(2-fluoro-3-methoxyphenyl)-3-hydroxy-2-oxoindolin-1-yl)methyl)cyclohexyl) nicotinamide], the IC50 is less than 200 nM.
